For test [1], the target named is WT MPH (methyl parathion hydrolase) (Ochrobactrum sp. M231, UniProt B2Z3X1). The text has this: steady-state kinetics of purified enzyme (standard assay by reference) on WT MPH (methyl parathion hydrolase)
The target in another test is D10-MPH (Ochrobactrum sp. M231, UniProt B2Z3X1). The text has this: steady-state kinetics of purified enzyme (standard assay by reference) on D10-MPH
Chain of D10-MPH (B2Z3X1 entry or part of it): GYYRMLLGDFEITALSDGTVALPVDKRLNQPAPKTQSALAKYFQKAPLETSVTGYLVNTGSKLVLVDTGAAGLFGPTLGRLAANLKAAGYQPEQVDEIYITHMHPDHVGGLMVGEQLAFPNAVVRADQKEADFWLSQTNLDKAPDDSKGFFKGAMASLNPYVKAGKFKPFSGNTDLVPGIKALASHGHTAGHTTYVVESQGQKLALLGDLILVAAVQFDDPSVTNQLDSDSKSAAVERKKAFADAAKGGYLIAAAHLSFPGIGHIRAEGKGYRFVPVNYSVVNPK

Chain of WT MPH (methyl parathion hydrolase) (B2Z3X1 entry or part of it): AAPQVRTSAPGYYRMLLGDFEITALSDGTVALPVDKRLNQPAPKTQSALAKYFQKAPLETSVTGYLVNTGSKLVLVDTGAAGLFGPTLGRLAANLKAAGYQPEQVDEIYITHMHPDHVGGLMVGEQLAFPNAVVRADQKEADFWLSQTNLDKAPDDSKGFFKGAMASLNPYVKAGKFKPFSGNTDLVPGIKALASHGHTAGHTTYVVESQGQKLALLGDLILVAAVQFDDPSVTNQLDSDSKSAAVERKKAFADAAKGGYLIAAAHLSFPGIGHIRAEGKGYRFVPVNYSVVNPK

Usually Km stands for the concentration of substrate that gives half-maximal velocity. As for `COP(=S)(OC)Oc1ccc([N+](=O)[O-])cc1` [methyl parathion], the figures for the Km (in test [1]; on D10-MPH) were 73.2 ± 4.7 µM and 86.9 ± 4.01 µM, respectively.

The record behind these values is PMC4013123 (PLoS ONE, 2014).
